Results reported in DBAASP.
In brackets after ≈: the same amount, converted by molar mass. Blank lines part the entries; values can stand above or below the molecule they belong to.

Legend:
Assay in all cases: ≥ marks a high value that may be exact or a test limit, other limits are often not marked, values filed in µg/mL are converted to µM
[1] = tested on: Staphylococcus aureus ATCC 33591
[2] = tested on: Pseudomonas aeruginosa ATCC 27853
[3] = tested on: Klebsiella pneumoniae ATCC 700603
[4] = tested on: Staphylococcus aureus ATCC 700699
[5] = tested on: Escherichia coli ATCC 25922
[6] = tested on: Staphylococcus aureus ATCC 29213
Escherichia coli = tested on: Escherichia coli
Listeria innocua = tested on: Listeria innocua
Micrococcus luteus A270 = tested on: Micrococcus luteus A270
[7] = tested on: Escherichia coli CVCC 1515
Escherichia coli K88 = tested on: Escherichia coli K88
[8] = tested on: Salmonella enterica subsp. enterica serovar Typhimurium ATCC 14028
[9] = tested on: Staphylococcus epidermidis ATCC 12228
Escherichia coli UB1005 = tested on: Escherichia coli UB1005
[10] = tested on: Staphylococcus aureus USA 300
[11] = tested on: Bacillus subtilis ATCC 23857
[12] = tested on: Staphylococcus epidermidis ATCC 35984
[13] = tested on: Enterococcus faecalis ATCC 29212
[14] = tested on: Staphylococcus aureus ATCC 6538
[15] = tested on: Staphylococcus aureus ATCC 25923
[16] = tested on: Pseudomonas aeruginosa ATCC 15442
[17] = tested on: Bacillus subtilis ATCC 9372
[18] = tested on: Bacillus anthracis Sterne 34F2
[19] = tested on: Burkholderia thailandensis
[20] = tested on: Salmonella enterica serovar Typhimurium
Candida albicans = tested on: Candida albicans
[21] = tested on: Pseudomonas aeruginosa H103
[22] = tested on: Staphylococcus epidermidis

SMILES: CC(C)C[C@H](NC(=O)[C@H](CO)NC(=O)[C@H](Cc1cnc[nH]1)NC(=O)[C@H](CO)NC(=O)[C@H](CC(C)C)NC(=O)[C@H](CC(C)C)NC(=O)[C@@H](N)CCCCN)C(=O)O [KLLSHSL]
- MIC (Escherichia coli): 78.4 µM (≈ 62.5 µg/mL)
- MIC (Listeria innocua): ≥ 39.2 µM
- MIC (Micrococcus luteus A270): ≥ 39.2 µM

SMILES: CC(C)C[C@H](NC(=O)[C@H](CCCCN)NC(=O)[C@H](C)NC(=O)[C@H](C)NC(=O)[C@H](C)NC(=O)[C@H](CCCCN)NC(=O)[C@H](C)NC(=O)[C@H](C)NC(=O)[C@H](C)NC(=O)[C@H](CCCCN)NC(=O)[C@H](CC(C)C)NC(=O)[C@@H](N)Cc1c[nH]c2ccccc12)C(=O)N[C@@H](Cc1c[nH]c2ccccc12)C(N)=O [WLKAAAKAAAKLW]
- MIC [7]: 4 µM (≈ 5.71 µg/mL)
- MIC (Escherichia coli K88): 2 µM (≈ 2.85 µg/mL)
- MIC [8]: 8 µM (≈ 11.4 µg/mL)
- MIC [9]: 8 µM (≈ 11.4 µg/mL)
- MIC [2]: 16 µM (≈ 22.8 µg/mL)
- MIC (Escherichia coli UB1005): 4 µM (≈ 5.71 µg/mL)

SMILES: CC[C@H](C)[C@H](NC(=O)CNC(=O)[C@@H](N)CCSC)C(=O)N[C@H](C(=O)N[C@@H](C)C(=O)NCC(=O)N[C@H](C(=O)N[C@H](C(=O)N[C@@H](CCCCN)C(=O)N[C@H](C(=O)N[C@H](C(=O)N[C@@H](CCCCN)C(=O)N[C@@H](CO)C(=O)N[C@@H](CC(C)C)C(=O)N[C@H](C(=O)N[C@@H](CCC(=O)O)C(=O)N[C@@H](CCC(N)=O)C(=O)N[C@@H](Cc1ccccc1)C(=O)N[C@H](C(=O)NCC(=O)N[C@@H](CCCCN)C(=O)O)[C@@H](C)O)[C@@H](C)CC)[C@@H](C)CC)C(C)C)[C@@H](C)CC)[C@@H](C)CC)[C@@H](C)CC [MGIIAGIIKVIKSLIEQFTGK]
- MIC [10]: ≥ 64 µM
- MIC [11]: ≥ 128 µM
- MIC [5]: > 128 µM
- MIC [12]: ≥ 64 µM

SMILES: CC(C)C[C@H](NC(=O)[C@H](C)NC(=O)[C@H](Cc1cnc[nH]1)NC(=O)[C@H](Cc1cnc[nH]1)NC(=O)CNC(=O)[C@H](CC(C)C)NC(=O)[C@@H](N)Cc1cnc[nH]1)C(=O)N[C@@H](CC(=O)O)C(=O)N[C@@H](Cc1cnc[nH]1)C(=O)N[C@@H](CC(C)C)C(=O)N[C@@H](CC(C)C)C(=O)N[C@@H](CCCCN)C(=O)O [HLGHHALDHLLK]
- MIC [13]: > 8990 µM
- MIC [14]: 8.99 mM (≈ 12500 µg/mL)
- MIC [15]: 8990 µM (≈ 12500 µg/mL)
- MIC [16]: ≥ 8.99 mM
- MIC [12]: ≥ 8990 µM
- MIC [6]: > 8990 µM

SMILES: CSCC[C@H](NC(=O)[C@H](Cc1ccccc1)NC(=O)CNC(=O)CNC(=O)[C@H](Cc1ccc(O)cc1)NC(=O)[C@H](CCCN=C(N)N)NC(=O)[C@H](CCCCN)NC(=O)[C@H](CCC(=O)O)NC(=O)[C@H](CCSC)NC(=O)[C@H](CCC(=O)O)NC(=O)[C@@H]1CCCN1C(=O)[C@@H]1CCCN1C(=O)[C@H](CCC(=O)O)NC(=O)[C@H](CCCCN)NC(=O)[C@H](CO)NC(=O)[C@H](Cc1ccc(O)cc1)NC(=O)[C@H](CO)NC(=O)[C@H](CCC(=O)O)NC(=O)CNC(=O)[C@H](CCC(=O)O)NC(=O)[C@H](CCC(=O)O)NC(=O)[C@H](CCC(=O)O)NC(=O)[C@H](CO)NC(=O)[C@@H]1CCCN1C(=O)[C@H](CC(C)C)NC(=O)[C@@H]1CCCN1C(=O)[C@H](CCC(=O)O)NC(=O)[C@H](C)NC(=O)[C@H](Cc1ccccc1)NC(C)=O)C(N)=O [FAEPLPSEEEGESYSKEPPEMEKRYGGFM]
- MIC [17]: ≥ 100 µM
- MIC [18]: ≥ 100 µM
- MIC [19]: ≥ 50 µM

SMILES: CC(C)C[C@H](NC(=O)[C@@H](N)Cc1ccccc1)C(=O)N[C@@H](CCCCN)C(=O)N[C@@H](CCCCN)C(=O)N[C@@H](C)C(=O)N[C@@H](CCCCN)C(=O)N[C@@H](CCCCN)C(=O)N[C@@H](Cc1ccccc1)C(=O)NCC(=O)N[C@@H](CCCCN)C(=O)N[C@@H](C)C(=O)N[C@@H](Cc1ccccc1)C(N)=O [FLKKAKKFGKAF]
- MIC [1]: ≥ 362 µM
- MIC [15]: > 362 µM
- MIC [2]: 45.3 µM (≈ 64 µg/mL)
- MIC [12]: ≥ 181 µM

SMILES: CC(C)C[C@H](NC(=O)[C@H](Cc1c[nH]c2ccccc12)NC(=O)[C@H](CCCCN)NC(=O)[C@H](C)NC(=O)[C@H](C)NC(=O)[C@H](C)NC(=O)[C@H](CCCCN)NC(=O)[C@H](C)NC(=O)[C@H](C)NC(=O)[C@H](C)NC(=O)[C@H](CCCCN)NC(=O)[C@H](Cc1c[nH]c2ccccc12)NC(=O)[C@@H](N)CC(C)C)C(N)=O [LWKAAAKAAAKWL]
- MIC [7]: 8 µM (≈ 11.4 µg/mL)
- MIC (Escherichia coli K88): 4 µM (≈ 5.71 µg/mL)
- MIC [8]: 64 µM (≈ 91.3 µg/mL)
- MIC [9]: 16 µM (≈ 22.8 µg/mL)
- MIC [2]: 16 µM (≈ 22.8 µg/mL)
- MIC (Escherichia coli UB1005): 8 µM (≈ 11.4 µg/mL)

SMILES: CC(C)C[C@H](NC(=O)[C@@H](N)CCCN=C(N)N)C(=O)N[C@@H](Cc1c[nH]c2ccccc12)C(=O)N[C@@H](Cc1c[nH]c2ccccc12)C(=O)N[C@@H](Cc1c[nH]c2ccccc12)C(=O)N[C@@H](Cc1c[nH]c2ccccc12)C(=O)N[C@@H](CCCN=C(N)N)C(=O)N[C@@H](CCCN=C(N)N)C(=O)N[C@@H](CCCCN)C(=O)O [RLWWWWRRK]
- MIC [13]: 4.1 µM (≈ 6.04 µg/mL)
- MIC [20]: 8.3 µM (≈ 12.2 µg/mL)
- MIC (Candida albicans): 4.1 µM (≈ 6.04 µg/mL)
- MIC [15]: 2.1 µM (≈ 3.09 µg/mL)
- MIC [21]: 16.6 µM (≈ 24.4 µg/mL)
- MIC [22]: 0.5 µM (≈ 0.736 µg/mL)
- MIC (Escherichia coli UB1005): 4.1 µM (≈ 6.04 µg/mL)

Continued, values first:

- MIC [1]: ≥ 100 µM
- MIC [2]: > 100 µM
- MIC [3]: 50 µM (≈ 125 µg/mL)
- MIC [4]: ≥ 100 µM
- MIC [5]: 50 µM (≈ 125 µg/mL)
- MIC [6]: > 100 µM
SMILES: CC[C@H](C)[C@H](NC(=O)[C@H](C)NC(=O)[C@@H](NC(=O)[C@@H](NC(=O)CN)C(C)C)C(C)C)C(=O)N[C@@H](CC(C)C)C(=O)N[C@@H](CCCCN)C(=O)NCC(=O)N[C@@H](C)C(=O)N[C@@H](C)C(=O)N[C@@H](CCCCN)C(=O)N[C@@H](CC(=O)O)C(=O)N[C@H](C(=O)N[C@@H](C)C(=O)NCC(=O)N[C@@H](Cc1cnc[nH]1)C(=O)N[C@@H](CC(C)C)C(=O)N[C@@H](C)C(=O)N[C@@H](CO)C(=O)N[C@@H](CCCCN)C(=O)N[C@H](C(=O)N[C@@H](CCSC)C(=O)N[C@@H](CC(N)=O)C(=O)N[C@@H](CCCCN)C(=O)N[C@@H](CC(C)C)C(N)=O)C(C)C)[C@@H](C)CC [GVVAILKGAAKDIAGHLASKVMNKL]

- MIC [1]: ≥ 100 µM
- MIC [2]: 100 µM (≈ 256 µg/mL)
- MIC [3]: 50 µM (≈ 128 µg/mL)
- MIC [4]: ≥ 100 µM
- MIC [5]: 25 µM (≈ 64.1 µg/mL)
- MIC [6]: > 100 µM
SMILES: CC[C@H](C)[C@H](NC(=O)[C@H](CC(=O)O)NC(=O)[C@H](CCCCN)NC(=O)[C@H](C)NC(=O)[C@H](C)NC(=O)[C@H](C)NC(=O)[C@H](CCCCN)NC(=O)[C@H](CC(C)C)NC(=O)[C@@H](NC(=O)[C@H](CC(=O)O)NC(=O)[C@@H](NC(=O)[C@@H](NC(=O)CN)C(C)C)C(C)C)[C@@H](C)CC)C(=O)N[C@@H](C)C(=O)NCC(=O)N[C@@H](Cc1cnc[nH]1)C(=O)N[C@@H](CC(C)C)C(=O)N[C@@H](C)C(=O)N[C@@H](CO)C(=O)N[C@@H](CCCCN)C(=O)N[C@H](C(=O)N[C@@H](CCSC)C(=O)N[C@@H](CC(N)=O)C(=O)N[C@@H](CCCCN)C(=O)N[C@@H](CC(C)C)C(N)=O)C(C)C [GVVDILKAAAKDIAGHLASKVMNKL]

- MIC [13]: 5.3 µM (≈ 7.44 µg/mL)
- MIC [20]: 5.3 µM (≈ 7.44 µg/mL)
- MIC (Candida albicans): 21.3 µM (≈ 29.9 µg/mL)
- MIC [15]: 1.3 µM (≈ 1.82 µg/mL)
- MIC [21]: ≥ 42.6 µM
- MIC [22]: 1.3 µM (≈ 1.82 µg/mL)
- MIC (Escherichia coli UB1005): 5.3 µM (≈ 7.44 µg/mL)
SMILES: CC[C@H](C)[C@H](NC(=O)[C@@H](N)CCCN=C(N)N)C(=O)N[C@@H](CCCN=C(N)N)C(=O)N[C@@H](CCCN=C(N)N)C(=O)N[C@@H](Cc1c[nH]c2ccccc12)C(=O)N[C@@H](CCCCN)C(=O)N[C@@H](Cc1ccccc1)C(=O)N[C@@H](CCCN=C(N)N)C(=O)N[C@@H](Cc1c[nH]c2ccccc12)C(=O)O [RIRRWKFRW]
